From patent US20050043315A1, “Aminopyrimidine compounds, processes for their preparation and pharmaceutical compositions containing them” (priority 2002, published 2005)

melting point | Compound
> 250 °C | Cn1nc(-c2c(-c3ccccc3)nc(N)nc2[S+](C)[O-])ccc1=O (stereo not shown) [Example 143, 6-[2-amino-4-(methylsulfinyl)-6-phenyl-5-pyrimidinyl]-2-methyl-3(2H)-pyridazinone]
215 to 217 °C | CC(C)n1nc(-c2c(OCC(=O)O)nc(N)nc2-c2ccccc2)ccc1=O [Example 100, {[2-amino-5-(1-isopropyl-6-oxo-1,6-dihydro-3-pyridazinyl)-6-phenyl-4-pyrimidinyl]oxy}acetic acid]
266 to 268 °C | CC(C)n1nc(-c2c(-c3ccccc3)nc(N)nc2-n2cncn2)ccc1=O [Example 131, 6-[2-Amino-4-phenyl-6-(1H-1,2,4-triazol-1-yl)-5-pyrimidinyl]-2-isopropyl-3(2H)-pyridazinone]
249 °C | Cc1ccc(-c2nc(N)ncc2-c2ccc(=O)[nH]n2)cc1 [Example 35, 6-[2-Amino-4-(4-methylphenyl)-5-pyrimidinyl]-3(2H)-pyridazinone]
121 to 125 °C | CC(C)n1nc(-c2cnc(N(C(=O)c3ccccc3)C(=O)c3ccccc3)nc2-c2ccccc2)ccc1=O [Example 178, N-benzoyl-N-[5-(1-isopropyl-6-oxo-1,6-dihydro-3-pyridazinyl)-4-phenyl-2-pyrimidinyl]benzamide]
110 °C | CC(C)n1nc(-c2cnc(N(C(=O)c3ccc(Cl)cc3)C(=O)c3ccc(Cl)cc3)nc2-c2ccccc2)ccc1=O [Example 180, 4-Chloro-N-(4-chlorobenzoyl)-N-[5-(1-isopropyl-6-oxo-1,6-dihydro-3-pyridazinyl)-4-phenyl-2-pyrimidinyl]benzamide]
245 to 246 °C | CN(C)c1ncc(-c2ccc(=O)[nH]n2)c(-c2ccccc2)n1 [Example 9, 6-[2-(Dimethylamino)-4-phenyl-5-pyrimidinyl]-3(2H)-pyridazinone]
240 to 242 °C | CC(C)n1nc(-c2c(Nc3ccccc3)nc(N)nc2-c2ccccc2)ccc1=O [Example 133, 6-(2-amino-4-anilino-6-phenyl-5-pyrimidinyl)-2-isopropyl-3(2H)-pyridazinone]
233 to 235 °C | CSc1nc(N)nc(-c2ccccc2)c1-c1ccc(=O)n(C)n1 [Example 142, 6-[2-Amino-4-(methylthio)-6-phenyl-5-pyrimidinyl]-2-methyl-3(2H)-pyridazinone]
272 to 274.5 °C | CC(C)n1nc(-c2c(NC(=N)N)nc(N)nc2-c2ccccc2)ccc1=O [Example 137, N-[2-amino-5-(1-isopropyl-6-oxo-1,6-dihydro-3-pyridazinyl)-6-phenyl-4-pyrimidinyl]guanidine]
123 °C | CC(C)n1nc(-c2cnc(N)nc2-c2cccc(OCCCF)c2)ccc1=O [Example 216, 6-{2-Amino-4-[3-(3-fluoropropoxy)phenyl]-5-pyrimidinyl}-2-isopropyl-3(2H)-pyridazinone]
236 to 237 °C | CC(C)n1nc(-c2cnc(N)nc2-c2cccc(Cl)c2)ccc1=O [Example 23, 6-[2-Amino-4-(3-chlorophenyl)-5-pyrimidinyl]-2-isopropyl-3(2H)-pyridazinone]
194 to 197 °C | CC(C)n1nc(-c2c(NCCN)nc(N)nc2-c2ccccc2)ccc1=O [Example 116, 6-{2-Amino-4-[(2-aminoethyl)amino]-6-phenyl-5-pyrimidinyl}-2-isopropyl-3(2H)-pyridazinone]
130.5 to 132.5 °C | C=CCOc1nc(N)nc(-c2ccccc2)c1-c1ccc(=O)n(C(C)C)n1 [Example 84, 6-[4-(Allyloxy)-2-amino-6-phenyl-5-pyrimidinyl]-2-isopropyl-3(2H)-pyridazinone]
256 °C | Nc1ncc(-c2ccc(=O)[nH]n2)c(-c2cccnc2)n1 [Example 31, 6-[2-Amino-4-(3-pyridinyl)-5-pyrimidinyl]-3(2H)-pyridazinone]
167 °C | COc1ccc(-c2nc(N)ncc2-c2ccc(=O)n(C(C)C)n2)cc1OC [Example 51, 6-[2-Amino-4-(3,4-dimethoxyphenyl)-5-pyrimidinyl]-2-isopropyl-3(2H)-pyridazinone]
202 to 204 °C | CC(C)n1nc(-c2c(NC(C)(C)C)nc(N)nc2-c2ccccc2)ccc1=O [Example 113, 6-[2-Amino-4-(tert-butylamino)-6-phenyl-5-pyrimidinyl]-2-isopropyl-3(2H)-pyridazinone]
162 to 163 °C | CC(C)n1nc(-c2c(OCc3ccccc3)nc(N)nc2-c2ccccc2)ccc1=O [Example 93, 6-[2-amino-4-(benzyloxy)-6-phenyl-5-pyrimidinyl]-2-isopropyl-3(2H)-pyridazinone]
158 to 162 °C | CC(C)n1nc(-c2cnc(NC(=O)OCC(Cl)(Cl)Cl)nc2-c2ccccc2)ccc1=O [Example 177, 2,2,2-trichloroethyl 5-(1-isopropyl-6-oxo-1,6-dihydro-3-pyridazinyl)-4-phenyl-2-pyrimidinylcarbamate]

melting point | Compound
128 to 130 °C | COCCOc1nc(N)nc(-c2ccccc2)c1-c1ccc(=O)n(C(C)C)n1 [Example 87, 6-[2-Amino-4-(2-methoxyethoxy)-6-phenyl-5-pyrimidinyl]-2-isopropyl-3(2H)-pyridazinone]
221.5 to 222.5 °C | CC(C)n1nc(-c2c(NCc3ccncc3)nc(N)nc2-c2ccccc2)ccc1=O [Example 123, 6-{2-Amino-4-phenyl-6-[(4-pyridinylmethyl)amino]-5-pyrimidinyl}-2-isopropyl-3(2H)-pyridazinone]
200 °C | CC(C)n1nc(-c2cnc(N)nc2-c2ccc(OCCF)cc2)ccc1=O [Example 209, 6-{2-Amino-4-[4-(2-fluoroethoxy)phenyl]-5-pyrimidinyl}-2-isopropyl-3(2H)-pyridazinone]
127.5 to 129 °C | CCCOc1nc(N)nc(-c2ccccc2)c1-c1ccc(=O)n(C(C)C)n1 [Example 91, 6-(2-amino-4-phenyl-6-propoxy-5-pyrimidinyl)-2-isopropyl-3(2H)-pyridazinone]
234 to 236 °C | CC(C)Nc1nc(N)nc(-c2ccccc2)c1-c1ccc(=O)n(C(C)C)n1 [Example 110, 6-[2-Amino-4-(isopropylamino)-6-phenyl-5-pyrimidinyl]-2-isopropyl-3(2H)-pyridazinone]
196 to 198 °C | CC(C)n1nc(-c2c(NCc3ccccn3)nc(N)nc2-c2ccccc2)ccc1=O [Example 121, 6-{2-Amino-4-phenyl-6-[(2-pyridinylmethyl)amino]-5-pyrimidinyl}-2-isopropyl-3(2H)-pyridazinone]
175 °C | CCCOc1ccc(-c2nc(N)ncc2-c2ccc(=O)n(C(C)C)n2)cc1 [Example 191, 6-[2-Amino-4-(4-propoxyphenyl)-5-pyrimidinyl]-2-isopropyl-3(2H)-pyridazinone]
265 °C | Nc1ncc(-c2ccc(=O)[nH]n2)c(-c2cccs2)n1 [Example 41, 6-[2-Amino-4-(2-thienyl)-5-pyrimidinyl]-3(2H)-pyridazinone]
241 to 243 °C | CSc1nc(N)nc(-c2ccc(S(C)(=O)=O)cc2)c1-c1ccc(=O)n(C(C)C)n1 [Example 151, 6-[2-amino-4-[4-(methylsulfonyl)phenyl]-6-(methylthio)-5-pyrimidinyl]-2-isopropyl-3(2H)-pyridazinone]
216.5 °C | COc1ccc(-c2nc(N)ncc2-c2ccc(=O)n(C(C)C)n2)cc1 [Example 44, 6-[2-amino-4-(4-methoxyphenyl)-5-pyrimidinyl]-2-isopropyl-3(2H)-pyridazinone]
238 to 240 °C | CC(C)n1nc(-c2cnc(N)nc2-c2cccc(Br)c2)ccc1=O [Example 236, 6-[2-Amino-4-(3-bromophenyl)-5-pyrimidinyl]-2-isopropyl-3(2H)-pyridazinone]
188 to 189 °C | CCCn1nc(-c2cnc(N)nc2-c2ccccc2)ccc1=O [Example 5, 6-(2-Amino-4-phenyl-5-pyrimidinyl)-2-propyl-3(2H)-pyridazinone]
214 to 215 °C | CC(C)n1nc(-c2c(Sc3ccccc3)nc(N)nc2-c2ccccc2)ccc1=O [Example 138, 6-[2-Amino-4-phenyl-6-(phenylthio)-5-pyrimidinyl]-2-isopropyl-3(2H)-pyridazinone]
216 °C | Cc1cccc(-c2nc(N)ncc2-c2ccc(=O)[nH]n2)c1 [Example 42, 6-[2-Amino-4-(3-methylphenyl)-5-pyrimidinyl]-3(2H)-pyridazinone]
155 °C | CC(C)CCOc1ccccc1-c1nc(N)ncc1-c1ccc(=O)n(C(C)C)n1 [Example 204, 6-{2-Amino-4-(2-(isopentyloxy)phenyl]-5-pyrimidinyl}-2-isopropyl-3(2H)-pyridazinone]
160 to 161 °C | CC(C)n1nc(-c2cnc(N)nc2-c2ccccc2C(F)(F)F)ccc1=O [Example 24, 6-{2-Amino-4-[2-(trifluoromethyl)phenyl]-5-pyrimidinyl}-2-isopropyl-3(2H)-pyridazinone]
235 to 237 °C | CC(C)n1nc(-c2c(Cl)nc(N)nc2-c2ccccc2)ccc1=O [Example 252, 6-(2-amino-4-chloro-6-phenyl-5-pyrimidinyl)-2-isopropyl-3(2H)-pyridazinone]
209 to 212 °C | CCCNc1nc(N)nc(-c2ccccc2)c1-c1ccc(=O)n(C(C)C)n1 [Example 109, 6-[2-Amino-4-phenyl-6-(propylamino)-5-pyrimidinyl]-2-isopropyl-3(2H)-pyridazinone]
170 °C | COc1ccccc1-c1nc(N)ncc1-c1ccc(=O)n(C(C)C)n1 [Example 58, 6-[2-Amino-4-(2-methoxyphenyl)-5-pyrimidinyl]-2-isopropyl-3(2H)-pyridazinone]

Compound | melting point
CCCCOc1cccc(-c2nc(N)ncc2-c2ccc(=O)n(C(C)C)n2)c1 [Example 199, 6-[2-Amino-4-(3-butoxyphenyl)-5-pyrimidinyl]-2-isopropyl-3(2H)-pyridazinone] | 130 °C
CCCCOc1ccc(-c2nc(N)ncc2-c2ccc(=O)n(C(C)C)n2)cc1 [Example 197, 6-[2-Amino-4-(4-butoxyphenyl)-5-pyrimidinyl]-2-isopropyl-3(2H)-pyridazinone] | 143 °C
